Data set [1] addresses dopamine transporter (Homo sapiens, UniProt Q01959). The experiment in a line: DA uptake: displacement of dopamine ligands in vitro (methods of Gu et al.). The conditions noted are these: DA Uptake, Uptake Profile (IC50, nM), displacement of dopamine ligands in vitro.
In data set [2] the target is T1, serotonin transporter (Homo sapiens, UniProt P31645). Put plainly: 5-HT uptake: displacement of serotonin ligands in vitro (methods of Gu et al.). The format is binding.
In data set [3] the target is T2, norepinephrine transporter (Homo sapiens, UniProt P23975). The experiment in a line: NE uptake: displacement of norephinephrine ligands in vitro (methods of Galli et al.). The class given is binding.
In data set [4] the target is T2, norepinephrine transporter. The experiment in a line: Functional activity, norephinephrine uptake inhibition in MDCK cell lines. The class given is cell-based.
Data set [5] has as its target DAT (Homo sapiens, UniProt Q01959). The experiment in a line: cell-based. Also on record: expressed in transfected cells. The conditions noted are these: hDAT cell line; read-out: DA Uptake, Functional Assays (antagonism, EC50).
Data set [6] has as its target T1, serotonin transporter. Put plainly: Functional activity, serotonin uptake inhibition in human HEK-293 cell lines. The class given is cell-based. On the set-up: expressed in transfected cells; host or cells: HEK-293.
Data set [7] has as its system mouse. The experiment in a line: Acute toxicity assessment, maximum tolerated dose i.v., mouse. The format is in vivo. The conditions noted are these: mice. How it is done: (§1) An in vivo evaluation was carried out to determine the maximum tolerated dose of numerous test compounds in two animal species (mouse and rat). The compounds were administered i.v. and the animals were then observed for 72 h. Compounds 114, 115, 113, 110, 124, 125, 129, and 130 were solubilized in 5% dextrose (w/v)/polyethylene glycol 400 (4:1 v/v). Compounds 126, 127, 131, and 132 were solubilized in 10% hydroxypropyl-β-cyclodextrin (w/v).

The subject of data set [8] is rat. The experiment in a line: Acute toxicity assessment, maximum tolerated dose i.v., rat. The conditions noted are these: rats. The format is in vivo. How it is done:
as §1

For data set [9], the system named is rats. The experiment in a line: Behavioral despair assay in rats, 3 i.p. injections (Example 143). The class given is in vivo, rat. The conditions noted are these: 30 mg/kg, 3 i.p. injections 24 h, 5 h and 1 h before test. The source says:
The objective of this study was to assess the antidepressant effects of test compounds 124, 125, 126, and 127 in the behavioral despair assay in rats according to the methods described by Porsolt R. D., Anton G., Blavet N., Jalfre M., Behavioural despair in rats: a new model sensitive to antidepressant treatment, Eur. J. Pharmacol., 1978, 47, 379-391. The animals were preconditioned in a pretest session, where the rats were individually forced to swim inside a vertical plexiglass cylinder containing water maintained at 19-20° C. After 15 minutes in the water, they were allowed to dry for 15 minutes in a heated enclosure. Twenty four hours later, they were replaced in the cylinder and the total duration of immobility was measured during a 5 minute test (test session). The test compounds and vehicle were administered as a series of 3 intraperitoneal injections 24 h, 5 h and 1 h before the 5 minute test on the second day.
The results are expressed as the percentage of variation of the total duration of immobility calculated from the mean value of the vehicle-treated group (% variation=[(immobility duration of vehicle-immobility duration of test compound)/(immobility duration of vehicle)]×100%).

Setting [10] is: displacement of serotonin ligands in vitro, read-out: 5-HT Uptake, Uptake Profile (IC50).
[11] abbreviates: NE Uptake, Uptake Profile (IC50, nM).
Where [12] appears, read: human HEK-293 cell lines, read-out: 5-HT Uptake, Functional Assays (antagonism, EC50).
The mark [13] stands for this setting: read-out: NE Uptake, Uptake Profile (IC50).

Read-outs that look alike come from different tables or passages of the source.

T1 sequence (P31645 whole entry): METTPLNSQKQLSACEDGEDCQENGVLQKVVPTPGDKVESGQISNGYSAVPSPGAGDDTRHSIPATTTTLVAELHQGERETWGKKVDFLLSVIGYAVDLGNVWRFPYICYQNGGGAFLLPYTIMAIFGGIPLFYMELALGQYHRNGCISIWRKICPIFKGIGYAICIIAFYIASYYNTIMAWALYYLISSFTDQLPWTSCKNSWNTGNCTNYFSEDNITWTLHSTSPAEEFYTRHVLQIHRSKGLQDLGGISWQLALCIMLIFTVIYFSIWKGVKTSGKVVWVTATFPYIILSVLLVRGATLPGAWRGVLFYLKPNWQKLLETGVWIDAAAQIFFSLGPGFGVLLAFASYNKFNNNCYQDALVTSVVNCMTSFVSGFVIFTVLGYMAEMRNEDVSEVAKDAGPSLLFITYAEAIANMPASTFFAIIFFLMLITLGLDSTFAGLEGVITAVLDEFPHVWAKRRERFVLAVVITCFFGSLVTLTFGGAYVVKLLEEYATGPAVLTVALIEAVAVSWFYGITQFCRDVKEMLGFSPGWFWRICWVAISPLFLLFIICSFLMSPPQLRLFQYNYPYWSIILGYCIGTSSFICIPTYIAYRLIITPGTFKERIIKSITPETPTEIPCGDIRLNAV
DAT, sequence (Q01959 whole entry): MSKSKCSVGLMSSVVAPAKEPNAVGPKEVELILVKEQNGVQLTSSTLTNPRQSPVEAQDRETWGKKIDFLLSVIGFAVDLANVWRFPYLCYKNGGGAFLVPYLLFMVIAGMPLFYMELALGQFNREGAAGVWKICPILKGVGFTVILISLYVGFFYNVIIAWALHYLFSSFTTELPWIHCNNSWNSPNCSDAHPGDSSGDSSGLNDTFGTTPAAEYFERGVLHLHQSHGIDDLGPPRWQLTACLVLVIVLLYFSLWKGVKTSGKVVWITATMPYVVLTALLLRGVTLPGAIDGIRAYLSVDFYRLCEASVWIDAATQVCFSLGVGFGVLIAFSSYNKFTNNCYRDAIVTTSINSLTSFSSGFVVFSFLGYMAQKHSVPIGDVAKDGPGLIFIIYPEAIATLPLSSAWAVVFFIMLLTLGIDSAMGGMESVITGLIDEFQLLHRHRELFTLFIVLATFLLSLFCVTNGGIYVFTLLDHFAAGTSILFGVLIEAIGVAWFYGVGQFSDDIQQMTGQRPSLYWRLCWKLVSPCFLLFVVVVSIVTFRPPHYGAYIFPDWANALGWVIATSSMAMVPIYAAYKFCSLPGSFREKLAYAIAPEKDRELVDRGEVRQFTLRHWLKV
dopamine transporter, sequence (Q01959 whole entry): as above
T2 sequence (P23975 whole entry): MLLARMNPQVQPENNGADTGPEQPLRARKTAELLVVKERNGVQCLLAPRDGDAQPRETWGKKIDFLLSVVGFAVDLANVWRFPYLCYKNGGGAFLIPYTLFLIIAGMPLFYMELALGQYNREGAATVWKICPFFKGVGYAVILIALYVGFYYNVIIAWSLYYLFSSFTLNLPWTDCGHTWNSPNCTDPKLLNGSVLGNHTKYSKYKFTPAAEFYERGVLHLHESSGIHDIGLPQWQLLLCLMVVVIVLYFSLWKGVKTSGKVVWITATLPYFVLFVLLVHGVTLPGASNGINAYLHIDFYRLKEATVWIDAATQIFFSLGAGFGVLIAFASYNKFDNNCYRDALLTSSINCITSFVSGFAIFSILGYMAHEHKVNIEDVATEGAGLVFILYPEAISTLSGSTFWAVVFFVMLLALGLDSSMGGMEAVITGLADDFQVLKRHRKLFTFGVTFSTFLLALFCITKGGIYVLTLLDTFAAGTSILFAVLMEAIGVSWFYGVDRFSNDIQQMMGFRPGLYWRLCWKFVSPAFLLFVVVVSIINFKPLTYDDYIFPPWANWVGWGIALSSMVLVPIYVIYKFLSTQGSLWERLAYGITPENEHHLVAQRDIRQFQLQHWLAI

With `Clc1ccc(C2(CN3CCCC(COc4ccc5c(c4)OCO5)C3)CCC2)cc1` (stereo not shown) [compound 83], the results for the IC50 in [1], in data set [2] (setting [10]) and in data set [3] (setting [11]) were less than 100 nM, less than 1000 nM and less than 1000 nM, respectively. Also, the EC50 (in general, the concentration at which the effect is half-maximal) in data set [4] is less than 1000 nM; in [5], less than 10 nM; in data set [6] (setting [12]), less than 100 nM.
Consider `OC(CN1CCCC(CCc2ccccc2)C1)c1ccc(Cl)cc1` (single isomer, unassigned) [compound 144, 1-(4-Chloro-phenyl)-2-(3-phenethyl-piperidin-1-yl)-ethanol], for which the results for the IC50 in data set [1], in data set [2] (setting [10]) and in data set [3] (setting [11]) were less than 10 nM, less than 10 nM and less than 100 nM, respectively. Also, the “tolerability and mortality after 72 h” value in [7] (5 mg/kg i.v.) and in data set [8] (5 mg/kg i.v.) was “tolerated” throughout.
`O=C(CN1CCC[C@H](COc2ccc(C(F)(F)F)cc2)C1)C1(c2ccc(Cl)cc2)CCC1` [compound 123, S-1-[1-(4-Chloro-phenyl)-cyclobutyl]-2-[3-(4-trifluoromethyl-phenoxymethyl)-piperidin-1-yl]-ethanone]: the IC50 (in general, the concentration that gives 50% inhibition) in data set [1] was less than 10 nM; in data set [2] (setting [10]), less than 1000 nM; in [3] (setting [11]) it was less than 1000 nM. The EC50 in data set [4] is less than 1000 nM; in data set [5] it was less than 10 nM; in data set [6] (setting [12]), less than 1000 nM.
`OC[C@H]1[C@@H](COc2ccc(C(F)(F)F)cc2)CCCN1CC1(c2ccc(Cl)cc2)CCC1` (single isomer, unassigned) [compound 132, cis-[1-[1-(4-chloro-phenyl)-cyclobutylmethyl]-3-(4-trifluoromethyl-phenoxymethyl)-piperidin-2-yl]-methanol]: the IC50 in [1] is less than 10 nM; in data set [2] (setting [10]), less than 1000 nM; in data set [3] (setting [11]), less than 100 nM. Besides, the “tolerability and mortality after 72 h” value in [7] (30 mg/kg i.v.) and in data set [8] (30 mg/kg i.v.) was “well tolerated” each time.
For the compound `CC(Oc1ccc(C(F)(F)F)cc1)C1CCCN(CC2(c3ccc(Cl)cc3)CCC2)C1` (stereo not shown) [compound 99, 1-[1-(4-chloro-phenyl)-cyclobutylmethyl]-3-[1-(4-trifluoromethyl-phenoxy)-ethyl]-piperidine], the IC50 in data set [1] was less than 100 nM; in [2] (setting [10]) it was less than 1000 nM; in data set [3] (setting [11]), less than 1000 nM. Also, the values for the EC50 in data set [4], in data set [5] and in data set [6] (setting [12]) were less than 1000 nM, less than 10 nM and greater than 1000 nM, respectively.
Consider `OC[C@H]1[C@@H](COc2ccc(C(F)(F)F)cc2)CCCN1CC1(c2ccc(Cl)cc2)CCC1` (single isomer, unassigned) [compound 131, cis-[1-[1-(4-chloro-phenyl)-cyclobutylmethyl]-3-(4-trifluoromethyl-phenoxymethyl)-piperidin-2-yl]-methanol], for which the figures for the IC50 in data set [1], in data set [2] (setting [10]) and in [3] (setting [11]) were less than 100 nM, less than 1000 nM and less than 1000 nM, respectively. In addition, the “tolerability and mortality after 72 h” value in data set [7] (30 mg/kg i.v.) and in [8] (30 mg/kg i.v.) was “well tolerated” throughout.
As to `FC(F)(F)c1ccc(COC[C@H]2CCCN(CC3(c4ccc(Cl)cc4)CCC3)C2)cc1` [compound 129, S-1-[1-(4-Chloro-phenyl)-cyclobutylmethyl]-3-(4-trifluoromethyl-benzyloxymethyl)-piperidine], the IC50 in data set [1] was less than 10 nM; in [2] (setting [10]), greater than 1000 nM; in [3] (setting [11]), less than 100 nM. The “tolerability after 72 h” value in data set [7] (20 mg/kg i.v.) is recorded as “well tolerated”. In data set [8] (30 mg/kg i.v.), the “tolerability and mortality after 72 h” value is “well tolerated”. Besides, the EC50 in data set [4] was less than 100 nM; in [5], less than 10 nM; in data set [6] (setting [12]), less than 100 nM.
For the compound `Clc1ccc(C2(CN3CCC[C@@H](CNc4ccccc4)C3)CCC2)cc1` [compound 28, {1-[1-(4-Chloro-phenyl)-cyclobutylmethyl]-piperidin-3-R-ylmethyl}-phenyl-amine], the IC50 in [1], in data set [2] (setting [10]) and in data set [3] (setting [11]) was less than 1000 nM in each case. Further, the figures for the EC50 in data set [4], in data set [5] and in data set [6] (setting [12]) were less than 1000 nM, less than 100 nM and less than 1000 nM, respectively.
In the case of `OC[C@H]1[C@@H](COc2ccc(C(F)(F)F)cc2)CCCN1CC1(c2ccc(Cl)cc2)CCC1` (racemic) [compound 82, cis-[1-[1-(4-chloro-phenyl)-cyclobutylmethyl]-3-(4-trifluoromethyl-phenoxymethyl)-piperidin-2-yl]-methanol], the figures for the IC50 in data set [1], in data set [2] (setting [10]) and in [3] (setting [11]) were less than 100 nM, less than 1000 nM and less than 1000 nM, respectively. In addition, the EC50 in [4] is less than 1000 nM; in data set [5] it was less than 100 nM.
Consider `OC(CN1CCCC(CCc2ccccc2)C1)c1ccc(Cl)cc1` (single isomer, unassigned) [compound 143, 1-(4-Chloro-phenyl)-2-(3-phenethyl-piperidin-1-yl)-ethanol], for which the IC50 in data set [1] is less than 100 nM; in [2] (setting [10]) it was less than 10 nM; in data set [3] (setting [11]) it was less than 100 nM. Besides, the “tolerability and mortality after 72 h” value in data set [7] (5 mg/kg i.v.) and in data set [8] (5 mg/kg i.v.) was “tolerated” throughout.
With `FC(F)(F)c1ccc(OCC2CN(CC3(c4ccc(Cl)cc4)CCC3)CCO2)cc1` (stereo not shown) [compound 102], the IC50 is less than 100 nM in data set [1]; greater than 1000 nM in data set [2] (5-HT Uptake, Uptake Profile (IC50, nM)); greater than 1000 nM in data set [3] (setting [11]). Also, the EC50 in data set [4] was less than 10 nM; in data set [5], less than 10 nM; in [6] (5-HT Uptake, Functional Assays (antagonism, EC50, nM)) it was greater than 1000 nM.
For `OC(CN1CCCC(COc2ccc(C(F)(F)F)cc2)C1)C1(c2ccccc2OC(F)(F)F)CCC1` (single isomer, unassigned) [compound 224, 1-[1-(2-Trifluoromethoxy-phenyl)-cyclobutyl]-2-[3-(4-trifluoromethyl-phenoxymethyl)-piperidin-1-yl]-ethanol], the half-inhibitory concentration (IC50) in data set [1], in [2] (setting [10]) and in data set [3] (setting [13]) was greater than 1000 nM each time. Further, the EC50 in [4] was greater than 1000 nM; in data set [5] it was greater than 1000 nM; in data set [6] (setting [12]), less than 1000 nM.
With `O=C(CN1CCC[C@@H](COc2ccc(C(F)(F)F)cc2)C1)C1(c2ccc(Cl)cc2)CCC1` [compound 128, S-1-[1-(4-Chloro-phenyl)-cyclobutyl]-2-[3-(4-trifluoromethyl-phenoxymethyl)-piperidin-1-yl]-ethanone], the IC50 is less than 100 nM in [1], less than 1000 nM in data set [2] (setting [10]) and less than 1000 nM in data set [3] (setting [11]). In addition, the EC50 was less than 1000 nM in data set [4], less than 10 nM in [5] and less than 1000 nM in [6] (setting [12]).
For the compound `Fc1ccc(OCC2CCCN(CC3(c4ccc(Cl)cc4)CCC3)C2)cc1` (stereo not shown) [compound 86, 1-[1-(4-Chloro-phenyl)-cyclobutylmethyl]-3-(4-fluoro-phenoxmethyl)-piperidine], the IC50 is less than 100 nM in data set [1], less than 1000 nM in data set [2] (setting [10]) and less than 1000 nM in data set [3] (setting [11]). Further, the values for the EC50 in data set [4], in data set [5] and in [6] (setting [12]) were less than 1000 nM, less than 10 nM and less than 1000 nM, respectively.
With `CN(C)CCCN1c2ccccc2CCc2ccccc21` [Imipramine], in data set [9], the “% variation of the total duration of immobility” value worked out at 55%.
In the case of `OC(CN1CCC[C@@H](CCc2ccccc2)C1)c1ccc(Cl)cc1` (stereo partly shown) [compound 233], the IC50 was less than 10 nM in [1], less than 10 nM in [2] (setting [10]) and less than 100 nM in data set [3] (setting [11]). The EC50 in data set [4], in data set [5] and in [6] (setting [12]) was less than 10 nM throughout.
With `OC(CN1CCCC(COc2ccc(C(F)(F)F)cc2)C1)C1(c2ccccc2OC(F)(F)F)CCC1` (single isomer, unassigned) [compound 225, 1-[1-(2-Trifluoromethoxy-phenyl)-cyclobutyl]-2-[3-(4-trifluoromethyl-phenoxymethyl)-piperidin-1-yl]-ethanol], the IC50 was less than 10 nM in [1], less than 1000 nM in [2] (setting [10]) and greater than 1000 nM in data set [3] (setting [13]). For the same compound, the EC50 was greater than 1000 nM in data set [4] (read-out: NE Uptake, Functional Assays (antagonism, EC50), MDCK cell lines); greater than 1000 nM in data set [5]; greater than 1000 nM in data set [6] (setting [12]).

For the origin of these results see patent publication US7294637B2 (Sepracor, Inc., priority 2000, dated 2007).
